Data as given in PubChem BioAssay AID328 (DTP/NCI, 2004).
“And” between values parts separate entries of the source, which are not always exact repeats. Identical values can stand only once. Inconclusive results and toxic doses are left out.

Test system: BDF1 mice, P388 leukemia ip, median survival T/C
Assay: NCI In Vivo Anticancer Drug Screen. Data for tumor model P388 Leukemia (intraperitoneal) in B6D2F1 (BDF1) mice
Conditions: endpoint: median survival time, higher = longer survival
Summary of the method: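 Read-out is survival of treated animals expressed relative to the vehicle group, as a T/C ratio.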

[1] = dose: 12.5 mg/kg/injection, schedule: Q01DX009 (ip), vehicle: saline
[2] = dose: 25.0 mg/kg/injection, schedule: Q01DX009 (ip), vehicle: saline
[3] = dose: 100.0 mg/kg/injection, schedule: Q04DX003 (ip), vehicle: saline with Tween-80
[4] = dose: 400.0 mg/kg/injection, schedule: Q04DX003 (ip), vehicle: saline with Tween-80
[5] = dose: 100.0 mg/kg/injection, schedule: Q01DX009 (ip), vehicle: saline with Tween-80
[6] = dose: 200.0 mg/kg/injection, schedule: Q01DX009 (ip), vehicle: saline with Tween-80
[7] = dose: 200.0 mg/kg/injection, schedule: Q04DX003 (ip), vehicle: saline with Tween-80
[8] = dose: 400.0 mg/kg/injection, schedule: Q01DX009 (ip), vehicle: saline with Tween-80
[9] = dose: 50.0 mg/kg/injection, schedule: Q01DX009 (ip), vehicle: saline with Tween-80
[10] = dose: 100.0 mg/kg/injection, schedule: Q01DX009 (ip), vehicle: saline
[11] = dose: 200.0 mg/kg/injection, schedule: Q01DX009 (ip), vehicle: saline
[12] = dose: 400.0 mg/kg/injection, schedule: Q01DX009 (ip), vehicle: saline
[13] = dose: 6.25 mg/kg/injection, schedule: Q01DX009 (ip), vehicle: saline
[14] = dose: 6.25 mg/kg/injection, schedule: Q04DX003 (ip), vehicle: saline
[15] = dose: 25.0 mg/kg/injection, schedule: Q04DX003 (ip), vehicle: saline

Clc1nnc(Cl)c(Cl)c1Cl
T/C (dose: 0.22 mg/kg/injection, schedule: Q01DX009 (ip), vehicle: Klucel (hydroxypropylcellulose) (HPC)): 100 % of control
T/C (dose: 0.22 mg/kg/injection, schedule: Q04DX003 (ip), vehicle: Klucel (hydroxypropylcellulose) (HPC)): 100 % of control
T/C (dose: 0.45 mg/kg/injection, schedule: Q01DX009 (ip), vehicle: Klucel (hydroxypropylcellulose) (HPC)): 91 % of control
T/C (dose: 0.45 mg/kg/injection, schedule: Q04DX003 (ip), vehicle: Klucel (hydroxypropylcellulose) (HPC)): 118 % of control
T/C (dose: 0.9 mg/kg/injection, schedule: Q01DX009 (ip), vehicle: Klucel (hydroxypropylcellulose) (HPC)): 91 % of control
T/C (dose: 0.9 mg/kg/injection, schedule: Q04DX003 (ip), vehicle: Klucel (hydroxypropylcellulose) (HPC)): 104 % of control
T/C (dose: 1.3 mg/kg/injection, schedule: Q04DX003 (ip), vehicle: Klucel (hydroxypropylcellulose) (HPC)): 104 % of control
T/C (dose: 2.0 mg/kg/injection, schedule: Q04DX003 (ip), vehicle: Klucel (hydroxypropylcellulose) (HPC)): 113 % of control
T/C (dose: 2.8 mg/kg/injection, schedule: Q01DX009 (ip), vehicle: saline): 87 % of control
T/C (dose: 3.0 mg/kg/injection, schedule: Q04DX003 (ip), vehicle: Klucel (hydroxypropylcellulose) (HPC)): 104 % of control

CN(C)c1ccc(N=Cc2cc[n+](C)cc2)cc1
T/C [1]: 104 % of control
T/C (dose: 16.5 mg/kg/injection, schedule: Q01DX009 (ip), vehicle: saline): 116 % of control and 122 % of control
T/C [2]: 101 % of control
T/C (dose: 37.5 mg/kg/injection, schedule: Q01DX009 (ip), vehicle: saline): 109 % of control and 118 % of control
T/C (dose: 50.0 mg/kg/injection, schedule: Q01DX009 (ip), vehicle: saline): 118 % of control

O=C(Nc1ccccc1)Oc1ccc(Cl)cc1
T/C (dose: 100.0 mg/kg/injection, schedule: Q04DX003 (ip), vehicle: Klucel (hydroxypropylcellulose) (HPC)): 104 % of control
T/C (dose: 200.0 mg/kg/injection, schedule: Q04DX003 (ip), vehicle: Klucel (hydroxypropylcellulose) (HPC)): 95 % of control
T/C (dose: 400.0 mg/kg/injection, schedule: Q04DX003 (ip), vehicle: Klucel (hydroxypropylcellulose) (HPC)): 109 % of control

O=[N+]([O-])c1ccc(-n2[nH]nnc2=S)cc1
T/C (dose: 50.0 mg/kg/injection, schedule: Q04DX003 (ip), vehicle: saline with Tween-80): 107 % of control
T/C [3]: 104 % of control
T/C [4]: 95 % of control

CCCCN(c1ccccc1)c1ncnc2c1cnn2C
T/C [5]: 92 % of control and 100 % of control
T/C [3]: 100 % of control and 108 % of control
T/C [6]: 107 % of control
T/C [7]: 91 % of control and 100 % of control
T/C [8]: 96 % of control and 100 % of control
T/C [4]: 95 % of control and 100 % of control

O=C(O)CCNSc1ccccc1[N+](=O)[O-]
T/C [9]: 106 % of control
T/C [5]: 106 % of control

C[N+]12CCN(CC1)CC2
T/C [10]: 91 % of control
T/C [11]: 91 % of control
T/C [12]: 100 % of control

O=C1CSC(c2ccccc2)N1c1nccs1 (stereo not drawn)
T/C [9]: 98 % of control
T/C [5]: 91 % of control
T/C [6]: 104 % of control

COc1c(O)c(O)c2c3c(c(O)c4c2c1C(=O)C=C4C)C(C)(C)C(C)O3 (stereo not drawn)
T/C (dose: 50.0 mg/kg/injection, schedule: Q04DX001 (ip), vehicle: saline): 104 % of control
T/C (dose: 100.0 mg/kg/injection, schedule: Q04DX001 (ip), vehicle: saline): 100 % of control
T/C (dose: 200.0 mg/kg/injection, schedule: Q04DX001 (ip), vehicle: saline): 100 % of control

Cc1c2cc3c(cc2cc2c4cc5c(cc4cc[n+]12)OCO5)OCO3 (tested in a mixture with another compound)
T/C (dose: 3.0 mg/kg/injection, schedule: Q04DX003 (ip), vehicle: saline): 159 % of control
T/C (dose: 3.13 mg/kg/injection, schedule: Q01DX009 (ip), vehicle: saline): 98 % of control
T/C (dose: 5.56 mg/kg/injection, schedule: Q04DX003 (ip), vehicle: saline): 150 % of control and 177 % of control
T/C [13]: 89 % of control
T/C [14]: 170 % of control
T/C (dose: 8.33 mg/kg/injection, schedule: Q04DX003 (ip), vehicle: saline): 172 % of control and 200 % of control
T/C (dose: 12.5 mg/kg/injection, schedule: Q04DX003 (ip), vehicle: saline): 150 % of control and 177 % of control and 190 % of control
T/C (dose: 18.7 mg/kg/injection, schedule: Q04DX003 (ip), vehicle: saline): 113 % of control
T/C [15]: 95 % of control

COc1ccc(C(=O)C(C)C(O)(C(F)(F)F)C(F)(F)F)cc1 (stereo not drawn)
T/C (dose: 100.0 mg/kg/injection, schedule: Q01DX001 (ip), vehicle: Klucel (hydroxypropylcellulose) (HPC)): 109 % of control
T/C (dose: 200.0 mg/kg/injection, schedule: Q01DX001 (ip), vehicle: Klucel (hydroxypropylcellulose) (HPC)): 109 % of control
T/C (dose: 400.0 mg/kg/injection, schedule: Q01DX001 (ip), vehicle: Klucel (hydroxypropylcellulose) (HPC)): 109 % of control

CCc1ccc2[nH]nc(CCC(=O)O)c(=O)c2c1
T/C [9]: 117 % of control
T/C [5]: 108 % of control
T/C [6]: 92 % of control

O=CN(O)CC(=O)O.[Ni]
T/C (dose: 1.56 mg/kg/injection, schedule: Q04DX003 (ip), vehicle: saline): 90 % of control
T/C (dose: 2.3 mg/kg/injection, schedule: Q01DX001 (ip), vehicle: saline): 105 % of control
T/C (dose: 3.12 mg/kg/injection, schedule: Q01DX009 (ip), vehicle: saline): 120 % of control
T/C (dose: 3.12 mg/kg/injection, schedule: Q04DX003 (ip), vehicle: saline): 109 % of control
T/C [13]: 115 % of control
T/C [14]: 109 % of control
T/C (dose: 9.2 mg/kg/injection, schedule: Q01DX001 (ip), vehicle: saline): 95 % of control
T/C (dose: 9.2 mg/kg/injection, schedule: Q04DX003 (ip), vehicle: saline): 100 % of control
T/C (dose: 13.0 mg/kg/injection, schedule: Q01DX001 (ip), vehicle: saline): 113 % of control
T/C (dose: 13.0 mg/kg/injection, schedule: Q04DX003 (ip), vehicle: saline): 109 % of control
T/C (dose: 14.0 mg/kg/injection, schedule: Q04DX003 (ip), vehicle: saline): 109 % of control
T/C (dose: 20.0 mg/kg/injection, schedule: Q01DX001 (ip), vehicle: saline): 113 % of control
T/C (dose: 21.0 mg/kg/injection, schedule: Q04DX003 (ip), vehicle: saline): 118 % of control
T/C (dose: 30.0 mg/kg/injection, schedule: Q01DX001 (ip), vehicle: saline): 113 % of control
T/C (dose: 30.0 mg/kg/injection, schedule: Q04DX003 (ip), vehicle: saline): 113 % of control

CCOC(=O)c1cc2c(nn3c(C)cccc23)n(CC)c1=N
T/C (dose: 6.25 mg/kg/injection, schedule: Q01DX001 (ip), vehicle: saline): 105 % of control
T/C (dose: 12.5 mg/kg/injection, schedule: Q01DX001 (ip), vehicle: saline): 122 % of control
T/C (dose: 25.0 mg/kg/injection, schedule: Q01DX001 (ip), vehicle: saline): 100 % of control

COC(=O)c1nc2c(C)nc(N(C)C)nc2[nH]c1=O
T/C [3]: 101 % of control
T/C [7]: 107 % of control
T/C [4]: 100 % of control

O=C(c1cccs1)C1Cc2ccccc2C1=O (stereo not drawn)
T/C [5]: 100 % of control
T/C [6]: 116 % of control
T/C [8]: 100 % of control

C#CC[N+](CCO)(CCO)CCCCCCCCCCCCCCCCCC
T/C (dose: 3.13 mg/kg/injection, schedule: Q01DX009 (ip), vehicle: Klucel (hydroxypropylcellulose) (HPC)): 110 % of control
T/C (dose: 6.25 mg/kg/injection, schedule: Q01DX009 (ip), vehicle: Klucel (hydroxypropylcellulose) (HPC)): 109 % of control
T/C (dose: 12.5 mg/kg/injection, schedule: Q01DX009 (ip), vehicle: Klucel (hydroxypropylcellulose) (HPC)): 113 % of control and 120 % of control

O=S(=O)(O)O.[W]
T/C (dose: 0.75 mg/kg/injection, schedule: Q01DX009 (ip), vehicle: saline): 96 % of control
T/C (dose: 3.0 mg/kg/injection, schedule: Q01DX009 (ip), vehicle: saline): 90 % of control

O=C(CCN1CCCCC1)c1ccccc1
T/C [1]: 89 % of control
T/C [2]: 95 % of control
T/C [15]: 95 % of control

CN(C)C(=O)c1cccc(N)c1
T/C [10]: 100 % of control
T/C [11]: 95 % of control
T/C [12]: 100 % of control
